From patent US12049483B2, “Selective and noncovalent inhibitors of oncogenic RAS mutants” (New York University, priority 2020, dated 2024) come the findings set out here.

In assay [1] the test system is KRAS mutant and control cell lines. The assay is described as follows: Cell proliferation assay of dox-inducible monobody-expressing cell lines. In kind it is cell-based. The conditions noted are these: KRAS(G12C) (H358 and H23) and KRAS(G12V) (PATU8902 and H441) cell lines. The method, then: Cell proliferation assay. […] Cells were then cultured in the presence of 1 μg/mL doxycycline for the entire duration of experiment (7-8 days) and subcultured into a new 12 well or 24 well plate every 2 days. […] The mixed culture was sampled periodically and the ratio between monobody expressing cells (mVenus and GFP positive) and non-expressing cells was determined using flow cytometry analysis (FIG. 11).

In the next assay the target is T1, NRAS(WT) (Homo sapiens, UniProt P01111).
T1 construct: made in house; host or cells: E. coli BL21(DE3) with pBirA
The assay is described as follows: Yeast display binding titration, NRAS(WT). The conditions noted are these: GTPγS and GDP bound states. The protocol:
(§1) Nucleotide exchange of RAS. Purified RAS proteins used in binding experiment and crystallization were prepared by diluting stock protein (typically containing 20-250 μM RAS) 25 times with 20 mM Tris-Cl buffer pH 7.5 containing 5 mM EDTA, 0.1 mM DTT and 1 mM final concentration of a nucleotide (GDP or GTPγS). Samples were incubated at 30° C. for 30 minutes. MgCl2 was then added to the sample at a final concentration of 20 mM and the solution was further incubated on ice for at least 5 minutes prior to use.
(§2) Monobody development. General procedures for the development of monobodies against purified protein targets have been described previously. After four rounds of phage display library selection using biotinylated KRAS(G12C) at concentrations of 100 nM, 100 nM, 50 nM and 50 nM, the genes encoding monobodies from the enriched phage pool were transferred to a yeast display vector, which was used to construct yeast-display libraries. The yeast display libraries were sorted using a Bio-Rad S3e fluorescence-activated cell sorter or a […] II cell sorter (BD Biosciences). […] Single clones were then screened for selective binding to RAS mutants. The expression of monobodies on the surface of yeast cells were detected using mouse anti-VS and anti-mouse IgG-FITC conjugate. Target binding was detected with neutravidin Dylight650. Yeast cells were analyzed using an iQue flow cytometer (Sartorius). […]

In the next assay the target is KRAS(G12C) (Homo sapiens, UniProt P01116, G12C). The assay is described as follows: Competitive binding assay of 12VC1 against known interaction partners of RAS (yeast display). On the set-up: KRAS4B residues 1-174 containing G12C, G12V, G12D, G13D, Q61L, WT; His6 (N, cleaved yes); Avi-tag (N, cleaved yes); made in house; host or cells: E. coli BL21(DE3).
For the next assay, the target named is T2, KRAS(G13D) (Homo sapiens, UniProt P01116, G13D).
T2 construct: KRAS4B residues 1-174 containing G12C, G12V, G12D, G13D, Q61L, WT; made in house; host or cells: E. coli BL21(DE3) with pBirA
Nature of the assay: Yeast display binding titration, KRAS(G13D). The conditions noted are these: GTPγS and GDP bound states. The method, then:
as §1, §2

“Also recorded” adds a separate entry of the source.

T1 sequence (P01111 whole entry): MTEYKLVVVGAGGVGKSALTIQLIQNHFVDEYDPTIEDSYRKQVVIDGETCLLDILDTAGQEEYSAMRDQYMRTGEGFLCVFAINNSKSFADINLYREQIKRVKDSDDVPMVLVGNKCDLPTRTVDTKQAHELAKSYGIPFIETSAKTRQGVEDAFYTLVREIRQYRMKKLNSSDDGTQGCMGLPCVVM
Protocol for KRAS(G12C): After four rounds of phage display library selection using biotinylated KRAS(G12C) at concentrations of 100 nM, 100 nM, 50 nM and 50 nM, the genes encoding monobodies from the enriched phage pool were transferred to a yeast display vector, which was used to construct yeast-display libraries. The yeast display libraries were sorted using a Bio-Rad S3e fluorescence-activated cell sorter or a [sequence] II cell sorter (BD Biosciences). […] The expression of monobodies on the surface of yeast cells were detected using mouse anti-VS and anti-mouse IgG-FITC conjugate. Target binding was detected with neutravidin Dylight650. Yeast cells were analyzed using an iQue flow cytometer (Sartorius).

For the sequence “VSSVPTKLEVVAATPTSLLISWDAPAVTVFFYVITYGETGHGVGAFQAFKVPGSKSTATISGLKPGVDYTITVYARGYSKQGPYKPSPISINYRT [12VC1]”, the proliferation entry in assay [1] was “potently inhibited”. In addition, the binding entry at NRAS(WT) is “no binding; also recorded: did not detectably bind”; at KRAS(G13D), “no binding”. Moreover, the “competition with RAF1-RBD for binding to RAS” value at KRAS(G12C) is “competed”.
